Measurements: patent US9682114B2, “Plant extracts of Ptaeroxylon obliquum nand compounds having antimicrobial and antihelminthic activity” (UNIVERSITY OF PRETORIA, priority 2013, dated 2017)
In brackets after ≈: the same amount, converted by molar mass. Like-named read-outs stand apart in the source and are kept apart here.

What was measured:
[1] = test system: Mycobacterium bovis; assay: microbe, parasite or virus in culture; assay type: cell-based
[2] = test system: Candida albicans ATCC 10231; assay: Microplate dilution MIC, opportunistic fungi (Example 9); assay type: cell-based; conditions: ATCC10231
Source text: (§1) The microplate dilution method (Eloff, 1998), with slight modification (Masoko et al., 2005) was used to test the antifungal activity of the crude extracts, fractions and isolated compounds from P. obliquum. Clinical isolates of the four opportunistic fungal strains Aspergillus fumigatus, Candida albicans, Crytococcus neoformans and Candida albicans ATCC 10231 were used to test for antifungal activity.

[3] = test system: Candida albicans (clinical isolate); assay: as above; assay type: cell-based
Source text: as §1

[4] = test system: Aspergillus fumigatus; assay: as above; assay type: cell-based
Source text: as §1

[5] = test system: Cryptococcus neoformans; assay: as above; assay type: cell-based
Source text: as §1

[6] = test system: Colletotrichum gloeosporioides; assay: MIC, plant pathogenic fungi; assay type: cell-based
Experimental: as §1
(§2) The antifungal activity of the crude extracts and the five fractions were also tested against 10 plant pathogenic fungi (Aspergillus niger, Aspergillus parasiticus, Colletotrichum gloeosporioides, Fusarium oxysporum, Penicillium digitum, Penicillium expansum, Penicillium italicum, Penicillium janthinellum, Trichoderma harzianum and Rhizoctonia solani).

[7] = test system: Penicillium italicum; assay: MIC, plant pathogenic fungi; assay type: cell-based
Experimental: as §1, §2

[8] = test system: Rhizoctonia solani; assay: MIC, plant pathogenic fungi; assay type: cell-based
Experimental: as §1, §2

[9] = test system: Penicillium janthinellum; assay: MIC, plant pathogenic fungi; assay type: cell-based
Experimental: as §1, §2

[10] = test system: Penicillium expansum; assay: MIC, plant pathogenic fungi; assay type: cell-based
Experimental: as §1, §2

[11] = test system: Aspergillus niger; assay: MIC, plant pathogenic fungi; assay type: cell-based
Experimental: as §1, §2

[12] = test system: Aspergillus parasiticus; assay: MIC, plant pathogenic fungi; assay type: cell-based
Experimental: as §1, §2

[13] = test system: Fusarium oxysporum; assay: MIC, plant pathogenic fungi; assay type: cell-based
Experimental: as §1, §2

[14] = test system: Penicillium digitum; assay: MIC, plant pathogenic fungi; assay type: cell-based
Experimental: as §1, §2

[15] = test system: Trichoderma harzianum; assay: MIC, plant pathogenic fungi; assay type: cell-based
Experimental: as §1, §2

[16] = test system: Mycobacterium smegmatis; assay: Serial microplate dilution MIC, mycobacteria; assay type: cell-based
[17] = test system: Salmonella typhi ATCC 14028; assay: Serial microplate dilution MIC, bacteria; assay type: cell-based; conditions: Salmonella enterica
Experimental: (§3) The serial microplate dilution method developed by Eloff (1998) was used to determine the minimal inhibitory concentration (MIC) of the crude extracts, fractions and isolated compounds from P. obliquum against several bacterial strains. The antimicrobial activity was determined against the bacterial strains Escherichia coli ATTC 27853, Escherichia coli ATTC 6739, Enterococcus faecalis ATCC 29212, Pseudomonas aeruginosa ATCC 25922, Staphylococcus aureus ATCC 6538, Staphylococcus aureus ATCC 29213, Salmonella typhi ATCC 14028.

[18] = test system: Escherichia coli ATTC 6739; assay: Serial microplate dilution MIC, bacteria; assay type: cell-based; conditions: ATTC6739
Experimental: as §3

[19] = test system: Pseudomonas aeruginosa ATCC 25922; assay: Serial microplate dilution MIC, bacteria; assay type: cell-based; conditions: ATCC25922
Experimental: as §3

[20] = test system: Staphylococcus aureus ATCC 29213; assay: Serial microplate dilution MIC, bacteria; assay type: cell-based; conditions: ATCC29213
Experimental: as §3

[21] = test system: Staphylococcus aureus ATCC 6538; assay: Serial microplate dilution MIC, bacteria; assay type: cell-based; conditions: ATCC6538
Experimental: as §3

[22] = test system: Escherichia coli ATTC 27853; assay: Serial microplate dilution MIC, bacteria; assay type: cell-based; conditions: ATTC27853
Experimental: as §3

[23] = test system: Enterococcus faecalis ATCC 29212; assay: Serial microplate dilution MIC, bacteria; assay type: cell-based; conditions: ATCC29212
Experimental: as §3

[24] = test system: bacterial strains (E. coli, E. faecalis, P. aeruginosa, S. aureus, S. typhi); assay: Antibacterial MIC, summary statements over all bacterial strains tested; assay type: cell-based; conditions: read-out: MIC (bacteria tested, summary)
Experimental: as §3

[25] = test system: Candida albicans standard strain (ATCC 10231) and clinical isolates; assay: Broth micro-dilution assay, minimal inhibitory concentration (MIC); assay type: cell-based; conditions: for MIC: Candida albicans, read-out: MIC; for Selectivity index (SI): LC50 against mouse fibroblast cells/MIC
[26] = test system: Haemonchus contortus (larva); assay: Larval development test (LDT); assay type: cell-based
Experimental: (§4) The extract and isolated compound were tested for activity on Haemonchus contortus.

[27] = test system: Mycobacterium fortuitum; assay: Serial microplate dilution MIC, mycobacteria; assay type: cell-based
[28] = in vitro; conditions: mouse, LC50 (cytotoxicity)
Source text: (§5) The MTT assay was used to determine the cytotoxicity of dried acetone extracts of H. caffrum (leaves); P. obliquum (leaves); R. melanophloeos (leaves) and S. birrea (stem bark) reconstituted in dimethyl sulphoxide (DMSO) against Mouse fibroblast cells (obtained from the Department of Plant Science, Faculty of Natural and Agricultural Sciences, University of Pretoria, South Africa).
(§6) MTT (yellow) is reduced into a formazan (purple) by viable cells. The colour intensity of the formazan produced, which is directly proportional to the number of viable cells, is measured using a spectrophotometer (Mosmann, 1983; Shai, 2007).
(§7) Cells were maintained in minimal essential medium (MEM) (Highveld Biological, South Africa) supplemented with 0.1% gentamicin (Virbac) and 5% foetal calf serum (Adcock-lngram). […] Dried crude plant extracts (100 mg) were reconstituted in 1 ml of DMSO and serial 10-fold dilutions of each extract were prepared in growth medium. The growth medium on sub-confluent monolayer cells grown overnight in microtitre plates was removed and cells were exposed to 200 μl of the extracts at different concentrations and incubated again at 37° C. for 5 days. Viability of cells was determined using the tetrazolium-based colorimetric assay (MTT assay) described by Mossmann (1983). Before the addition of MTT, the extract-containing medium on the cells was replaced with fresh culture medium to exclude reduction of the tetrazolium compound by plant extracts. The assay is based on mitochondrial dehydrogenase activity which is assessed by the reductive cleavage of the tetrazolium salt MTT [3-(4.5-dimethylthiazolyl)2.5-diphenyltetrazolium bromide] due to the succinic dehydrogenase present in living cells to yield a purple formazan dye. The cells were incubated with 30 μl of 5 mg/ml MTT in phosphate-buffered saline (PBS) for four hours. Thereafter, medium was removed and cells washed with PBS. DMSO (50 μl) was added to the cells and absorbance was measured using a Versamax microplate reader at 570 nm. Berberine chloride (Sigma) was used as a positive control, wells containing only cells acted as the negative control and a solvent control was also included. The percentage cell viability following the addition of varying concentrations of the extracts in relation to controls was calculated. The LC50 values were calculated (using SoftMax Pro4.8 Software) as the concentration of plant extracts resulting in 50 percent reduction of absorbance compared to untreated cells. Tests were carried out in quadruplicate and each experiment was repeated three times.

[29] = test system: Mycobacterium aurum; assay: Serial microplate dilution MIC, mycobacteria; assay type: cell-based; conditions: Mycolicibacterium aurum
[30] = test system: mouse fibroblast cells; conditions: 5 days
Source text: as §5, §6, §7

[31] = in vitro
[32] = test system: Haemonchus contortus (egg); assay: Egg hatch assay (EHA); assay type: cell-based; conditions: egg of Haemonchus contortus; read-out: Antihelminthic activity EC50 (mg/ml) EDA
Experimental: as §4

[33] = in vitro; conditions: human

CC(=O)OCC1=CCc2c(cc(O)c3c(=O)cc(C)oc23)OC1 [Compound 2, 8,11-Dihydro-5-hydroxy-12-hydroxymethyl-2-methyl-4H-pyrano[2,3-g][1]benzoxepin-4-one 12-O-acetate]
MIC ([1]; Mycobacterium bovis): 31.5 µg/mL (≈ 99.6 µM)
MIC ([1]; Mycobacterium tuberculosis variant bovis): 31.5 µg/mL (≈ 99.6 µM)
MIC [2]: 2 µg/mL (≈ 6.32 µM)
MIC [3]: 62.5 µg/mL (≈ 198 µM)
MIC [4]: 16 µg/mL (≈ 50.6 µM)
MIC [5]: 8 µg/mL (≈ 25.3 µM)
MIC [6]: 32 µg/mL (≈ 101 µM)
MIC [7]: 125 µg/mL (≈ 395 µM)
MIC [8]: 8 µg/mL (≈ 25.3 µM)
MIC ([8]; R. solani, read-out: MIC): 8 µg/mL (≈ 25.3 µM)
MIC [9]: 63 µg/mL (≈ 199 µM)
MIC [10]: 32 µg/mL (≈ 101 µM)
MIC [11]: 32 µg/mL (≈ 101 µM)
MIC [12]: 250 µg/mL (≈ 790 µM)
MIC [13]: 63 µg/mL (≈ 199 µM)
MIC [14]: 32 µg/mL (≈ 101 µM)
MIC [15]: 16 µg/mL (≈ 50.6 µM)
MIC ([15]; T. harzianum, read-out: MIC): 16 µg/mL (≈ 50.6 µM)
MIC ([16]; Mycobacterium smegmatis): 16 µg/mL (≈ 50.6 µM)
MIC ([16]; Mycolicibacterium smegmatis, M. smegmatis, read-out: MIC): 16 µg/mL (≈ 50.6 µM)
MIC [17]: 31.5 µg/mL (≈ 99.6 µM)
MIC [18]: 80 µg/mL (≈ 253 µM)
MIC [19]: 31.5 µg/mL (≈ 99.6 µM)
MIC [20]: 31.5 µg/mL (≈ 99.6 µM)
MIC [21]: 31.5 µg/mL (≈ 99.6 µM)
MIC [22]: 80 µg/mL (≈ 253 µM)
MIC [23]: > 250 µg/mL
MIC [24]: 31.5 µg/mL (≈ 99.6 µM)
MIC ([25]; 12 h, 12 h incubation, C. albicans 1051255): > 250 µg/mL
MIC ([25]; 12 h, 12 h incubation, C. albicans 1051604): > 250 µg/mL
MIC ([25]; 12 h, 12 h incubation, C. albicans 1051608): 8 µg/mL (≈ 25.3 µM)
MIC ([25]; 12 h, 12 h incubation, C. albicans ATCC 10231): 4 µg/mL (≈ 12.6 µM)
MIC ([25]; 12 h, 12 h incubation, C. albicans M0824): > 250 µg/mL
MIC ([25]; 12 h, 12 h incubation, C. albicans M0825): > 250 µg/mL
MIC ([25]; 12 h, 12 h incubation, C. albicans M0826): > 250 µg/mL
MIC ([25]; 24 h, 24 h incubation, C. albicans 1051255): > 250 µg/mL
MIC ([25]; 24 h, 24 h incubation, C. albicans 1051604): > 250 µg/mL
MIC ([25]; 24 h, 24 h incubation, C. albicans 1051608): 250 µg/mL (≈ 790 µM)
MIC ([25]; 24 h, 24 h incubation, C. albicans ATCC 10231): 4 µg/mL (≈ 12.6 µM)
MIC ([25]; 24 h, 24 h incubation, C. albicans M0824): > 250 µg/mL
MIC ([25]; 24 h, 24 h incubation, C. albicans M0825): > 250 µg/mL
MIC ([25]; 24 h, 24 h incubation, C. albicans M0826): > 250 µg/mL
MIC ([25]; C. albicans ATCC 10231, mean value): 4 µg/mL (≈ 12.6 µM)
Selectivity index (SI) ([25]; C. albicans 1051255): <0.029
Selectivity index (SI) ([25]; C. albicans 1051604): <0.029
Selectivity index (SI) ([25]; C. albicans 1051608): 0.029
Selectivity index (SI) ([25]; C. albicans ATCC 10231): 1.808
Selectivity index (SI) ([25]; C. albicans M0824): <0.029
Selectivity index (SI) ([25]; C. albicans M0825): <0.029
Selectivity index (SI) ([25]; C. albicans M0826): <0.029
Selectivity index (SI) Average ([25]; average over ATCC 10231 and clinical isolates): 0.283
EC50 ([26]; Haemonchus contortus larvae, read-out: EC50 against larvae): 0.0956 mg/mL (≈ 302 µM)
EC50 ([26]; larva of Haemonchus contortus, read-out: Antihelminthic activity EC50 (mg/ml) LDT): 0.0956 ± 0.002 mg/mL (≈ 302 µM)
MIC ([27]; Mycobacterium fortuitum): 8 µg/mL (≈ 25.3 µM)
MIC ([27]; Mycolicibacterium fortuitum, M. fortuitum, read-out: MIC): 8 µg/mL (≈ 25.3 µM)
CC50 at 5 days [28]: 7.23 µg/mL (≈ 22.9 µM)
MIC [29]: 125 µg/mL (≈ 395 µM)
LC50 (cytotoxicity) [30]: 7.23 µg/mL (≈ 22.9 µM)
CC50 ([31]; monkey and human): > 200 µg/mL
EC50 [32]: 0.224 ± 0.0286 mg/mL (≈ 707 µM)

COc1cccc2c1C(=O)c1c(O)c3c(c(O)c1C2=O)C[C@@](O)(C(=O)CO)C[C@@H]3O[C@H]1C[C@H](N)[C@H](O)[C@H](C)O1 [doxorubicin, reference compound]
CC50 [33]: 116 ± 17.4 nM
CC50 ([31]; monkey): 2510 ± 203 nM
